This is an account of results in patent publication US11649238B2, “Substituted pyrazolo[1,5-a]pyrimidines as PI4K inhibitors” (GLAXOSMITHKLINE INTELLECTUAL PROPERTY DEVELOPMENT LIMITED, priority 2018, dated 2023).

For data set [1], the target named is T1, human PI4KIII-beta 13-828 (D316-330) (Homo sapiens, UniProt Q9UBF8).
T1 construct: human PI4KIII-beta 13-828 (D316-330)
Nature of the data set: PI4 KB Activity Assay (ADP-GLO Kinase assay). Type of data set: biochemical. As to conditions: 1 mM ATP, 60 μM phosphatidylinositol, 3 hours at room temperature; read-out: mean pIC50 (converted). Put shortly:
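Human PI4KIII-beta 13-828 (Δ316-330), 1.5 nM, with 1 mM ATP and 60 μM phosphatidylinositol in Hepes pH 7.5/MgCl2 buffer, 11-point titration (top 10 μM, 1% DMSO), 3 h at room temperature. ADP measured by ADP-Glo luminescence; IC50 by four-parameter fit against no-compound and no-enzyme controls.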
In general terms: ADP-Glo turns the ADP formed in a reaction into a luminescent signal.

The subject of data set [2] is human rhinovirus Type A Strain 16 (HRVA16) in HeLa Ohio cells. The experiment in a line: Cytopathic Effect (CPE) Assay, ATP-depletion in infected HeLa Ohio cells. It is filed as cell-based. As to conditions: HRVA16 at MOI of 1, 33° C. for 2 days, CellTiter-Glo. On the procedure: c) Cytopathic Effect (CPE) Assay Protocol
The in vitro inhibition of PI4 KB activity was determined by analysis of the inhibition of ATP-depletion in HeLa Ohio cells in response to infection with human rhinovirus Type A Strain 16 (HRVA16). ATP levels were determined using CellTiter-GLO reagent from Promega. Compounds that inhibit PI4 KB are also potent inhibitors of human rhinoviruses and are able to protect HeLa Ohio cells from CPE induced by viral infection and replication. Protected cells remain viable following viral infection and therefore have greater ATP levels.
Compounds were dissolved in 100% DMSO to a concentration of 3 mM and subsequent dilutions were prepared in 100% DMSO using a 1:3 serial step dilution. A 0.5 μL stamp from an 10-point titration was transferred to a white 96 well Greiner tissue culture flat bottom plate (655083). A 0.5 μL stamp of 100% DMSO was stamped into columns 11 and 12 of the plate, ensuring a final assay DMSO concentration of 0.33% across the plate and a compound top final assay concentration of 10 μM.
HeLa Ohio cells were cultured at 37° C., 5% CO2 in media (DMEM supplemented with 10% Australian origin foetal bovine serum and 2 mM glutamax). Cells were passaged when confluency reached >80%. For the assay, cells were grown to 80-90% confluency before detachment.
Cells were detached for the assay by washing with PBS and detached using 3 mL TrypLE Express for […] at 37° C. Detached cells were mixed with 7 mL of media and centrifuged at 300 g for 5 min. The cell pellet was resuspended in 50 mL media and counted on a Beckman Coulter ViCell. Cells were diluted to 6.6×10^4 cells/mL and some of the cell volume was removed into a new tube to be used as a column 12 control. HRVA16 stock was added to the remaining cell suspension at the appropriate dilution for the virus stock to achieve an MOI of 1.
150 μL of the cell+virus suspension was added per well to columns 1-11 using a Multidrop Combi. 150 μL of the separate cell suspension was added per well to columns 12 using a multichannel pipette. Assay plates were sealed and incubated at 33° C., 5% CO2 for 2 days. After 2 days, assay plates were removed from the incubator and allowed to equilibrate to room temperature. 60 μL of CellTiter-Glo reagent was added to all wells using a Thermo Scientific Multidrop Combi. Plates were incubated at room temperature for 20 min before reading on an a Perkin Elmer Envision (Settings: Gripper height 2.5, Fixed measurement height (mm) 6.5, Distance between plate and detector 0, Measurement time (s) 0.1, Glow (ct2) correction factor (0%)).
The inhibitory effect of the compounds on the PI4 KB activity was evaluated by the IC50 of the response relative to the high (no virus, column 12) and low (virus+no inhibitor, column 11) controls by fitting to a four parameter dose response equation.
Background: Damage to the host cells serves as the signal in cytopathic effect assays.

A short description of data set [3]: Human Microsomal Metabolic Stability Assay. It is filed as in vitro ADME. As to conditions: 0.5 μM test compound, 0.5 mg/mL microsomal protein, 45 min. The protocol:
d) Human Microsomal Metabolic Stability Assay Protocol Summary Test compound (0.5 μM) was incubated with pooled liver microsomes. Test compound was incubated over the course of a 45 min experiment and the test compound was analysed by LC-MS/MS. Experimental Procedure Pooled human liver microsomes were purchased from a reputable commercial supplier, for example Corning Life Sciences. Microsomes (final protein concentration 0.5 mg/mL), 50 mM phosphate buffer pH7.4 and NADPH (final concentration=1 mM) were pre-incubated at 37° C. prior to the addition of test compound (final substrate concentration=0.5 μM; final DMSO concentration=0.25%) to initiate the reaction. The final incubation volume was 500 μL. A control incubation was included for each compound tested where 50 mM phosphate buffer pH7.4 was added instead of NADPH (minus NADPH). Two control compounds were included with each species. All incubations are performed singularly for each test compound. Each compound was incubated for 45 minutes and samples (50 μL) of incubate were taken at 0, 5, 15, 30 and 45 min. The control (minus NADPH) was sampled at 45 min only. The reactions were stopped by the addition of 100 μL acetonitrile containing internal standard to the sample. The terminated samples were centrifuged at 2,500 rpm for 20 min at 4° C. to precipitate the protein. Quantitative Analysis Following protein precipitation, the samples were analysed using generic LC-MS/MS conditions. Data Analysis From a plot of In peak area ratio (compound peak area/internal standard peak area) against time, the gradient of the line was determined. Subsequently, intrinsic clearance was calculated using the equations below, then converted to mL/min/g: Elimination rate constant (k)=(−gradient) Half life (t½) (min)=0.693+k Intrinsic Clearance (CLint) (μL/min/mg protein)=(V×0.693)+t1/2 where V=Incubation volume μL/mg microsomal protein.

SMILES strings stand for the structures. Values joined by “and” are separate entries in the source; they are usually repeats but may differ in a detail not shown here. Identical values can stand only once.

T1 sequence (Q9UBF8 1-801 isoform Q9UBF8-2): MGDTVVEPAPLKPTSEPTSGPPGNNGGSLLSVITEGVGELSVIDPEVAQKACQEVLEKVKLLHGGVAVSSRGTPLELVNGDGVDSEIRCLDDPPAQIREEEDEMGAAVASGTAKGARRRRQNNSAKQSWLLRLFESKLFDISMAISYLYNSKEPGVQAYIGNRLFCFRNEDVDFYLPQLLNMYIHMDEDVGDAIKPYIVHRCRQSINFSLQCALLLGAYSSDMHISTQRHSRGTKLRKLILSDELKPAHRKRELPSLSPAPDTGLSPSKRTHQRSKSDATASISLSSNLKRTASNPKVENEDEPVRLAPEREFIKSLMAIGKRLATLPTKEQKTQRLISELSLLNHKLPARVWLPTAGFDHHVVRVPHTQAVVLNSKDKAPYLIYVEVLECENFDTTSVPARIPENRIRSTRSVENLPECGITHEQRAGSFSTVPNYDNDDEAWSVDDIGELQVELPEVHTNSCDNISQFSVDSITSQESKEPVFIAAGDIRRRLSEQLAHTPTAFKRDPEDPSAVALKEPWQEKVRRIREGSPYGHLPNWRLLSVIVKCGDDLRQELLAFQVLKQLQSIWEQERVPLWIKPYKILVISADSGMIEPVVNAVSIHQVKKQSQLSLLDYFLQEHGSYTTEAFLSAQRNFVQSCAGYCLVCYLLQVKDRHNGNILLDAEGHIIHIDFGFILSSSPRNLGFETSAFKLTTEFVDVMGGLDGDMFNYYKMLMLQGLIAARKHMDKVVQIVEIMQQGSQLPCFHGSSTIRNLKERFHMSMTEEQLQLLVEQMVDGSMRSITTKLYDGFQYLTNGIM

For `COc1ccc(-c2c(C)nn3c(NCc4cccc(-c5nccn5C)c4)cc(C(C)(C)O)nc23)cc1C(=O)N(C)C1CCOCC1` [Compound 21, 5-(5-(2-Hydroxypropan-2-yl)-2-methyl-7-((3-(1-methyl-1H-imidazol-2-yl)benzyl)amino)pyrazolo[1,5-a]pyrimidin-3-yl)-2-methoxy-N-methyl-N-(tetrahydro-2H-pyran-4-yl)benzamide], the IC50 in data set [1] was 6.31 nM. Besides, the “mean pIC50” value in data set [2] is listed as 8.8. Further, the intrinsic clearance in data set [3] turned out to be 34.0 mL/min/g.
As for `Cc1ccc(-c2c(C)nn3c(NCc4cccc(-c5nccn5C)c4)cc(C(C)(C)O)nc23)cc1C(=O)N(C)[C@@H](C)CO` [Compound 22, (S)—N-(1-hydroxypropan-2-yl)-5-(5-(2-hydroxypropan-2-yl)-2-methyl-7-((3-(1-methyl-1H-imidazol-2-yl)benzyl)amino)pyrazolo[1,5-a]pyrimidin-3-yl)-N,2-dimethylbenzamide], the IC50 in data set [1] was 3.16 nM and ≤ 3.98 nM. Moreover, the “mean pIC50” value in data set [2] is recorded as “at least 9.1”. The intrinsic clearance in data set [3] turned out to be 33.7 mL/min/g.
In the case of `Cc1ccc(-c2c(C)nn3c(NCc4cccc(-c5nccn5C)c4)cc(C(C)(C)O)nc23)cc1C(=O)N(C)CCCO` [Compound 17, 5-(5-(2-Hydroxypropan-2-yl)-2-methyl-7-((3-(1-methyl-1H-imidazol-2-yl)benzyl)amino)pyrazolo[1,5-a]pyrimidin-3-yl)-N-(3-hydroxypropyl)-N,2-dimethylbenzamide], the IC50 in data set [1] was 2.51 nM and ≤ 3.98 nM. For the same compound, in data set [2], the “mean pIC50” value was determined as 8.9. In addition, in data set [3], the intrinsic clearance amounted to 28.9 mL/min/g.
Regarding `CCN(CCO)C(=O)c1cc(-c2c(C)nn3c(NCc4cccc(-c5nccn5C)c4)cc(C(C)(C)O)nc23)ccc1OC` [Compound 19, N-ethyl-N-(2-hydroxyethyl)-5-(5-(2-hydroxypropan-2-yl)-2-methyl-7-((3-(1-methyl-1H-imidazol-2-yl)benzyl)amino)pyrazolo[1,5-a]pyrimidin-3-yl)-2-methoxybenzamide], the IC50 in data set [1] is 2.51 nM and ≤ 3.98 nM. The “mean pIC50” value in data set [2] is recorded as 8.9. The same compound gave an intrinsic clearance in data set [3] of 11.6 mL/min/g.
